“Also recorded” adds a separate entry of the source.
Legend:
[1] = biological target: T1, GABAA receptors (α1, β2, γ2 subunit combination) (Homo sapiens, UniProt P14867+P18507+P47870); assay: Whole-cell voltage-clamp on GABAA receptors transiently transfected in HEK-293 cells; format: cell-based; settings: activation or potentiation of GABA-evoked currents
T1 construct: expressed in transfected cells; host or cells: HEK-293 (transient)
Procedure: A single-cell suspension of HEK-293 cells stably transfected with the appropriate ion channels were plated into TC-treated 35 mm polystyrene dishes at ˜15% confluence and incubated overnight in a 5% CO2 cell culture incubator at 37° C. Whole-cell patch-clamp recordings were performed 24-72 h after plating. Borosilicate glass electrodes ([…] resistance) were filled with Intracellular Solution (130 mM KCl, 20 mM NaCl, 5 mM EGTA, 5.46 mM MgCl2, and 10 mM HEPES, pH 7.4). Whole cell currents were recorded in 20K extracellular solution at −70 mV using a Pico 1 amplifier (Tecella, Foothill Ranch, Calif.) controlled by WINWCP 4.X (University of Strathclyde, Glasgow, Scotland, UK). Signals were compensated for electrode capacitance, cellular capacitance and series resistance. Signals were filtered at 1 kHz, and digitized at 5 kHz. Solutions were applied to the cell with a Valvelink 8.2 (Automate Scientific, Berkeley, Calif.) rapid, valve-controlled perfusion system with in-house-made local superfusion manifold. […] One day after transfection, cells were plate into 35 mm polystyrene dishes, incubated and recorded as described above. […]
Voltage-clamp data were analyzed by converting current amplitudes to current density by dividing by each cell's membrane capacitance estimated from capacitance compensation. […]

Adenosine A1 = biological target: T2, Adenosine A1 (Homo sapiens, UniProt P30542); assay: Radioligand displacement (Ricerca); format: binding
T2 construct: Ricerca (contract assay)

Adrenergic α2A = biological target: T3, Adrenergic α2A (Homo sapiens, UniProt P08913); assay: Radioligand displacement (Ricerca); format: binding
T3 construct: Ricerca (contract assay)

Andreogen = biological target: T4, Andreogen (Rattus norvegicus, UniProt P15207); assay: Radioligand displacement (Ricerca); format: binding
T4 construct: Ricerca

Dopamine D2s = biological target: T5, Dopamine D2s (Homo sapiens, UniProt P14416); assay: Radioligand displacement (Ricerca); format: binding
T5 construct: Ricerca

GABAB1A = biological target: T6, GABAB1A (Homo sapiens, UniProt Q9UBS5); assay: Radioligand displacement (Ricerca); format: binding
T6 construct: Ricerca

Leukotriene = biological target: T7, Leukotriene (Homo sapiens, UniProt Q9Y271); assay: Radioligand displacement (Ricerca); format: binding
T7 construct: Ricerca (contract laboratory that ran the panel)

Muscarinic M3 = biological target: T8, Muscarinic M3 (Homo sapiens, UniProt P20309); assay: Radioligand displacement (Ricerca); format: binding
T8 construct: Ricerca (contract laboratory that ran the panel)

Opiate (DOP) = biological target: T9, Opiate (DOP) (Homo sapiens, UniProt P41143); assay: Radioligand displacement (Ricerca); format: binding
T9 construct: Ricerca (contract laboratory that ran the panel)

Opiate (MOP) = biological target: T10, Opiate (MOP) (Homo sapiens, UniProt P35372); assay: Radioligand displacement (Ricerca); format: binding
T10 construct: Ricerca (contract laboratory that ran the panel)

Sigma σl = biological target: T11, Sigma σl (Homo sapiens, UniProt Q99720); assay: Radioligand displacement (Ricerca); format: binding
T11 construct: Ricerca (contract panel)
T11 sequence (Q99720 whole entry): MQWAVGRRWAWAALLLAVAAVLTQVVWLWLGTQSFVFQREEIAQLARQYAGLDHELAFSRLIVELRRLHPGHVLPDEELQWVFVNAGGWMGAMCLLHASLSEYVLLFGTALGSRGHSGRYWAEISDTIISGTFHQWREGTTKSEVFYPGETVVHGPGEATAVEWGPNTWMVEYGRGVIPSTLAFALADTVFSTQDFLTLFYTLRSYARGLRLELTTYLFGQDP

T1 sequence (P14867 28-456): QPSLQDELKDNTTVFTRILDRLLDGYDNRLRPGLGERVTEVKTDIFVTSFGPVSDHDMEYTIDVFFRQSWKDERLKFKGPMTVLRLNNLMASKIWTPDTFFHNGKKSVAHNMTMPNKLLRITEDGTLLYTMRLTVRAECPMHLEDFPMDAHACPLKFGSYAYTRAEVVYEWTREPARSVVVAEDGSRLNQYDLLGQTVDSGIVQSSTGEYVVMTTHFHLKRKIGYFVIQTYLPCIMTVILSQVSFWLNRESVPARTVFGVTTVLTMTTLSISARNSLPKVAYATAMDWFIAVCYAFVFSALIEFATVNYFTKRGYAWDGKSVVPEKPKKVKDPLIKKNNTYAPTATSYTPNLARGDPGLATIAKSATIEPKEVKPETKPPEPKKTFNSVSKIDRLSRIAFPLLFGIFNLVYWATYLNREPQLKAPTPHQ
T1 sequence (P47870 25-512 limits assumed): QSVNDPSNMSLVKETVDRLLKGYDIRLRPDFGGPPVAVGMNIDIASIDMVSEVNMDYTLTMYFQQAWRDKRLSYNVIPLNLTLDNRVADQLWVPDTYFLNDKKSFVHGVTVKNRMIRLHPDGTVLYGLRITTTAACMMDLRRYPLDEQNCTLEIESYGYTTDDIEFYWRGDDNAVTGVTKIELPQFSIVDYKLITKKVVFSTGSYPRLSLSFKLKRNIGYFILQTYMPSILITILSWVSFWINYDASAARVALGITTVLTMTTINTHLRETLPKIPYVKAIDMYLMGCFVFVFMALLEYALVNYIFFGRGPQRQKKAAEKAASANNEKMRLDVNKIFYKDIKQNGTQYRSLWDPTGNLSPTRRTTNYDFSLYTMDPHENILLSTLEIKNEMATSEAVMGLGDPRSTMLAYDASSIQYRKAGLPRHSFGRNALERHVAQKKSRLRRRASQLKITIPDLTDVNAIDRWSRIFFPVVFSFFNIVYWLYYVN
T1 sequence (P18507 40-475): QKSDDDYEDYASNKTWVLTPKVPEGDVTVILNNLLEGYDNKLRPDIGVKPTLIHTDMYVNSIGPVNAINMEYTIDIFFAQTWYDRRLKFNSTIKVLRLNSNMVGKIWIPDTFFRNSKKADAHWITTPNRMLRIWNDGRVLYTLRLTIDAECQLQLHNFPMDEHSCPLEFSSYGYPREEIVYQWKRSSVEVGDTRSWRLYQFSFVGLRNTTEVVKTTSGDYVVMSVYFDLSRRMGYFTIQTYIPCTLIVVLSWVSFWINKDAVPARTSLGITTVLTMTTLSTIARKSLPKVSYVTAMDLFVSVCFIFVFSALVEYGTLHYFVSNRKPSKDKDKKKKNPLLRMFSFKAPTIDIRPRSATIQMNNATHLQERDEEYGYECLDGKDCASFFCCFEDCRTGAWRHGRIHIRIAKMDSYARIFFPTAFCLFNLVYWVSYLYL
T6 sequence (Q9UBS5 15-961 limits assumed): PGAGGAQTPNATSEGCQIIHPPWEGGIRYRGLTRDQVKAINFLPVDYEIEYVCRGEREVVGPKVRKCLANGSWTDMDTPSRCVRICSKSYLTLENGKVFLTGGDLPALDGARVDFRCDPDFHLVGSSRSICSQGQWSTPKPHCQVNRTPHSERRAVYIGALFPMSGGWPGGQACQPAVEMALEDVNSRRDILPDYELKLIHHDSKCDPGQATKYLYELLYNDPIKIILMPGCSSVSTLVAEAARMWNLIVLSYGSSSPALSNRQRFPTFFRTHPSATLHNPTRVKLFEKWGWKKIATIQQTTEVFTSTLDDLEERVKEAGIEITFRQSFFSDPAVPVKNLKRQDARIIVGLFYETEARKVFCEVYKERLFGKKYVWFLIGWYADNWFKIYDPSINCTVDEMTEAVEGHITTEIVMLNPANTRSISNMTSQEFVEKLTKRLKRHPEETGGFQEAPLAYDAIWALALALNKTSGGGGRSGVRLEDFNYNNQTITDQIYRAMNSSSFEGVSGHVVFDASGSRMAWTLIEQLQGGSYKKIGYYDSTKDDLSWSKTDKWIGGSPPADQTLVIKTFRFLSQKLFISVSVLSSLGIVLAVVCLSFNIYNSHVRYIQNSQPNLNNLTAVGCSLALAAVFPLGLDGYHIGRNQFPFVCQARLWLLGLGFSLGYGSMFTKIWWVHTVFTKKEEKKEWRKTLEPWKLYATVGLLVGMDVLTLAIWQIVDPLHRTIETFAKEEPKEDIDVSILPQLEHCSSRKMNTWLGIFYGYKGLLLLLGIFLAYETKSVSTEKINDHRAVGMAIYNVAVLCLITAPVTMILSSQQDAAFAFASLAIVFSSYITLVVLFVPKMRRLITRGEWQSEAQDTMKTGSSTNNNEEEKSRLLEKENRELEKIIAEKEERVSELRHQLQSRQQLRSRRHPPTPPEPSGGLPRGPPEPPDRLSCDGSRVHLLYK
T3 sequence (P08913 whole entry): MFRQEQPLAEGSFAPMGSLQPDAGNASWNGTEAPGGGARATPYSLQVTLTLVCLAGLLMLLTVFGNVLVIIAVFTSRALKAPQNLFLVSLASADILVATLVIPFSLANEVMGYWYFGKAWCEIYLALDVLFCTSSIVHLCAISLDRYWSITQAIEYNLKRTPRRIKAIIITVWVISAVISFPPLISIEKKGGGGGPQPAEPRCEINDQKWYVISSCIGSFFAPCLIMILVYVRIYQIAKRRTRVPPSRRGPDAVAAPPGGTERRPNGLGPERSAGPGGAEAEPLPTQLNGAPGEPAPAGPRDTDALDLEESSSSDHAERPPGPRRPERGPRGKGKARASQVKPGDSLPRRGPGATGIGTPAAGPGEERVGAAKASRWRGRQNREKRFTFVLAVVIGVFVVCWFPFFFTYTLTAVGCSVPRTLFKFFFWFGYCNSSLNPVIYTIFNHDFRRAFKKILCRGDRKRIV
T2 sequence (P30542 whole entry): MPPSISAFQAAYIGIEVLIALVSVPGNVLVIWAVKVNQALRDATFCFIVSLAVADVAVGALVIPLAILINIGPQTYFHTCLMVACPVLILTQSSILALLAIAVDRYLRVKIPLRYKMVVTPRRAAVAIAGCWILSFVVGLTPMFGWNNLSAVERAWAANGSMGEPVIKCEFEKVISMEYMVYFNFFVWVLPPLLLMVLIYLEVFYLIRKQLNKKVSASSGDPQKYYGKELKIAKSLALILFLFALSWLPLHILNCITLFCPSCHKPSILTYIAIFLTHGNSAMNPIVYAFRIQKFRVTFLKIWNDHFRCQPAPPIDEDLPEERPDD
T7 sequence (Q9Y271 whole entry): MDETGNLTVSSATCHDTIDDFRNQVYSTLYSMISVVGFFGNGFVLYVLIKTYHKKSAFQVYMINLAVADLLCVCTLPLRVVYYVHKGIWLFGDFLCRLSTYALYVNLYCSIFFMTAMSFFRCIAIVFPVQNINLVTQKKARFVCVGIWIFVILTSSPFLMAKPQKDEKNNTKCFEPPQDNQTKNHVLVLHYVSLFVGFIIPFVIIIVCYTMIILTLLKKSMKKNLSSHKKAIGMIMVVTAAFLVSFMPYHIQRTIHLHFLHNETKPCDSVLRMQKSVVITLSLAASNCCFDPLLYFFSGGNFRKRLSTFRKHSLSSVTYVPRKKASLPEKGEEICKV
T5 sequence (P14416 1-414 isoform P14416-2): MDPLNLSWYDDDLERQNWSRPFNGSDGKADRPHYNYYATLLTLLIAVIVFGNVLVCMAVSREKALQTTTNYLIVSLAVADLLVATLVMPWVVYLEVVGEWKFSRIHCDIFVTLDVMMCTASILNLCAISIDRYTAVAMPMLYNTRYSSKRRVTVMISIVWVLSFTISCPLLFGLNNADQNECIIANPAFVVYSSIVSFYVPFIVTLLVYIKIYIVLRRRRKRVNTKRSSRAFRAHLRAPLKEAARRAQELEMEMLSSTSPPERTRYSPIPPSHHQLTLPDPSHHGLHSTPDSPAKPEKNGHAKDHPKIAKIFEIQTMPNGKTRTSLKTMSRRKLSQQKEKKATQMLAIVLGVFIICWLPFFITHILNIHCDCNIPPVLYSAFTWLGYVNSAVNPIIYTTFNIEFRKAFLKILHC
T9 sequence (P41143 whole entry): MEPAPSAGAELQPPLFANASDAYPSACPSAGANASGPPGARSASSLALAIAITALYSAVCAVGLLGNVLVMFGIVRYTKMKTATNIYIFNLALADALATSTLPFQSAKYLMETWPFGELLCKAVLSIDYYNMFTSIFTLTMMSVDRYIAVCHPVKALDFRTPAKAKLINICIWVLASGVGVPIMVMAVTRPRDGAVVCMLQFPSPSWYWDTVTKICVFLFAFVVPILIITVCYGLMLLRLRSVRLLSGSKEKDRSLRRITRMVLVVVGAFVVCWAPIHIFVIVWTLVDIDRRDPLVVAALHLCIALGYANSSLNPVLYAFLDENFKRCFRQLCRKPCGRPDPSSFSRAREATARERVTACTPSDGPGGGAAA
T10 sequence (P35372 whole entry): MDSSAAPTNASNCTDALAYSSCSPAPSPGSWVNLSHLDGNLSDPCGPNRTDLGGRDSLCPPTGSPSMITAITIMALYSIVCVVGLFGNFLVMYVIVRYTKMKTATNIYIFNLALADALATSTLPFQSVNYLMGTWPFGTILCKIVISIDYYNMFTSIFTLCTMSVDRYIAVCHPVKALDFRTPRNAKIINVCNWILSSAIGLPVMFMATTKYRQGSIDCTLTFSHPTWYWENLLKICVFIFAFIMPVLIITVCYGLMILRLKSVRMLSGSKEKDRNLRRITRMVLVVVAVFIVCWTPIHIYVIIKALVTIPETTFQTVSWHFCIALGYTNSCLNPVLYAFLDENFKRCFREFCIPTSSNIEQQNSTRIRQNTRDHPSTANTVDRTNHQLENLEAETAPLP

Cc1cc(NC(=O)Nc2ccc(F)c(F)c2)n(-c2ccccc2)n1 [VU0456810, 1-(3,4-difluorophenyl)-3-(3-methyl-1-phenyl-1H-pyrazol-5-yl)urea]
Potency [1]: failed to show any activation or potentiation; also recorded: Inactive
inhibition at 10 µM (Adenosine A1): 6%
inhibition at 10 µM (Adrenergic α2A): 4%
inhibition at 10 µM (Andreogen): 0%
inhibition at 10 µM (Dopamine D2s): 16%
inhibition at 10 µM (GABAB1A): 11%
inhibition at 10 µM (Leukotriene): 4%
inhibition at 10 µM (Muscarinic M3): 13%
inhibition at 10 µM (Opiate (DOP)): -4%
inhibition at 10 µM (Opiate (MOP)): 21%
inhibition at 10 µM (Sigma σl): < 50%
% Inhibition (Sigma σl; 10 μM): 49%

Source: US9067894B1, “Compound, composition, and method of activating GIRK potassium channel and use of same for treating conditions of interest” (Vanderbilt University, priority 2013, dated 2015)
